# Experimental data taken from patent publication US20240158446A1, “CYCLIC COMPOUND HAVING SELECTIVE INHIBITORY ACTION ON KRAS OVER HRAS AND NRAS” (CHUGAI SEIYAKU KABUSHIKI KAISHA, priority 2021, published 2024).
# Like-named read-outs stand apart in the source and are kept apart here.
# How the values were obtained:
# [1] = target: GDP-bound KRAS wild-type protein (Homo sapiens, UniProt P01116); assay: Binding to KRAS by surface plasmon resonance (SPR), Single Cycle Kinetics; details: SPR, Single Cycle Kinetics
# [2] = target: GDP-bound NRAS wild-type protein (Homo sapiens, UniProt P01111); assay: Binding to NRAS by surface plasmon resonance (SPR), Single Cycle Kinetics; details: SPR; for NRAS/KRAS (ratio of KD value for NRAS to KD value for KRAS): GDP-bound NRAS wild-type protein vs GDP-bound KRAS wild-type protein
# [3] = target: GDP-bound HRAS wild-type protein (Homo sapiens, UniProt P01112); assay: Binding to HRAS by surface plasmon resonance (SPR), Single Cycle Kinetics; details: SPR; for HRAS/KRAS (ratio of KD value for HRAS to KD value for KRAS): GDP-bound HRAS wild-type protein vs GDP-bound KRAS wild-type protein
# [4] = test system: human lung cancer strain NCI-H441;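 further: cell proliferation inhibition after four days measured by CellTiter-Glo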
# [5] = 1:1 binding model, GDP-bound KRAS wild-type protein, read-out: KRAS KD
# [6] = GDP-bound KRAS wild-type protein, read-out: KRAS KD
# [7] = read-out: NCI-H441 cell proliferation inhibitory activity, 50% proliferation inhibitory concentration (IC50 value), NCI-H441, four days, CellTiter-Glo
# Chain of GDP-bound NRAS wild-type protein (P01111 whole entry): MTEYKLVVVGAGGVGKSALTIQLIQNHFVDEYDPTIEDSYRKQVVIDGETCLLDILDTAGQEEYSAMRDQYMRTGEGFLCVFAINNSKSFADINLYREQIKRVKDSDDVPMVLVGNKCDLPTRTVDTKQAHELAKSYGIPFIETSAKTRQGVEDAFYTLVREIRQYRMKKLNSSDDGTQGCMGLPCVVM
# Chain of GDP-bound HRAS wild-type protein (P01112 whole entry): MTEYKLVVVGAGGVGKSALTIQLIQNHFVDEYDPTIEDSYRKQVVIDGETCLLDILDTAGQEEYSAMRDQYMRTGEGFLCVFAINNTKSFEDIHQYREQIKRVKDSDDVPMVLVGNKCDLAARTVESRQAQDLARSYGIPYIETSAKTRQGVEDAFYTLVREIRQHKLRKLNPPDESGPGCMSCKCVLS
# Chain of GDP-bound KRAS wild-type protein (P01116 whole entry): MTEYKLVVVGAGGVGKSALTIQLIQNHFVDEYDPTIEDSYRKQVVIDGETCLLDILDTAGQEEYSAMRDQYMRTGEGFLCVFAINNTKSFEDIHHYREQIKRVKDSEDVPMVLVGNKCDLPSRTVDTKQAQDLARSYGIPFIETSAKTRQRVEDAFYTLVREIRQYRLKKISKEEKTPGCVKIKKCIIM
SMILES,"Kd [1, 5] [nM]",IC50 [4] [nM],"Kd ([1]; 1:1 binding model, read-out: KD value with respect to GDP-bound KRAS wild-type protein) [nM]","Kd [1, 6] [nM]","IC50 [4, 7] [nM]",NRAS/KRAS (ratio of KD value for NRAS to KD value for KRAS) ([2]; KD ratio class),HRAS/KRAS (ratio of KD value for HRAS to KD value for KRAS) ([3]; KD ratio class),NRAS/KRAS (ratio of KD value for NRAS to KD value for KRAS) [2],ratio of the KD value with respect to GDP-bound NRAS wild-type protein to the KD value with respect to KRAS [2],HRAS/KRAS (ratio of KD value for HRAS to KD value for KRAS) [3],ratio of the KD value with respect to GDP-bound HRAS wild-type protein to the KD value with respect to KRAS [3]
CCO[C@@H]1C[C@H]2C(=O)NC3(CCC3)C(=O)N(C)[C@@H](C3CCCC3)C(=O)N(C)[C@H](C(=O)N3CCOCC3)CC(=O)N(C)[C@@H](CC3CCCCC3)C(=O)N[C@@H]([C@@H](C)CC)C(=O)N(C)CC(=O)N(C)[C@H]3C/C=C\CCN(C3=O)[C@@H](Cc3ccc(C)cc3)C(=O)N(C)CC(=O)N[C@@H](CCc3cc(F)c(C(F)(F)F)c(F)c3)C(=O)N2C1 [PP1420],0.35,31.4,,,,A (a compound having 10 or more and less than 20 is denoted as A),A (a compound having 10 or more and less than 20 is denoted as A),,,,
CC[C@H](C)[C@@H]1NC(=O)[C@H](CC(C)C)N(C)C(=O)CSC[C@H](C(=O)N(C)C)N(C)C(=O)[C@H](C2CCCC2)N(C)C(=O)C2(CCCC2)NC(=O)[C@@H]2CCCN2C(=O)[C@@H](CCc2cc(F)c(C(F)(F)F)c(F)c2)NC(=O)CN(C)C(=O)[C@H](Cc2ccc(C(F)(F)F)cc2)N2CC=CC[C@@H](C2=O)N(C)C(=O)CN(C)C1=O [PP3108],,,870,870,9250,,,C (A compound having a KD ratio of 0.1 or more and less than 3 is denoted as C),C (A compound having a KD ratio of 0.1 or more and less than 3 is denoted as C),B (a compound having 3 or more and less than 10 is denoted as B),B (a compound having 3 or more and less than 10 is denoted as B)
CCO[C@@H]1C[C@H]2C(=O)NC3(CCC3)C(=O)N(C)[C@@H](C(CC)CC)C(=O)N(C)[C@H](C(=O)N3CCCC3)CC(=O)N(C)[C@@H](COC)C(=O)N[C@@H]([C@@H](C)CC)C(=O)N(C)CC(=O)N(C)[C@H]3C/C=C\CCN(C3=O)[C@@H](CC3CCCCC3)C(=O)N(C)CC(=O)N[C@@H](CCc3cc(F)c(C(F)(F)F)c(F)c3)C(=O)N2C1 [PP1438],0.55,89.4,,,,AA (a compound having 20 or more is denoted as AA),A (a compound having 10 or more and less than 20 is denoted as A),,,,
CCOC[C@H]1C(=O)N[C@@H]([C@@H](C)CC)C(=O)N(C)CC(=O)N(C)[C@H]2C/C=C\CCN(C2=O)[C@@H](CC2CCC(F)(F)CC2)C(=O)N(C)CC(=O)N[C@@H](CCc2ccc(C(F)(F)F)c(OC)c2)C(=O)N2C[C@@H](C)C[C@H]2C(=O)NC2(CC(C)(C)C2)C(=O)N(C)[C@@H](C(CC)CC)C(=O)N(C)[C@H](C(=O)N(C)C)CC(=O)N1C [PP2458],,80.7,,1.3,,,,A (a compound having 10 or more and less than 20 is denoted as A),,A (a compound having 10 or more and less than 20 is denoted as A),
CCO[C@@H]1C[C@H]2C(=O)NC3(CC(C)(C)C3)C(=O)N(C)[C@@H](C3CCCC3)C(=O)N(C)[C@H](C(=O)N(C)C)CC(=O)N(C)[C@H]3CCCCCc4ccc(cc4)C[C@@H](C(=O)N(C)CC(=O)N[C@@H](CCc4ccc(C(F)(F)F)c(OC)c4)C(=O)N2C1)N1CC/C=C\C[C@@H](C1=O)N(C)C(=O)CN(C1CC1)C(=O)[C@H]([C@@H](C)CC)NC3=O [PP3075],,,,0.076,1.1,,,A (a compound having 10 or more and less than 20 is denoted as A),A (a compound having 10 or more and less than 20 is denoted as A),A (a compound having 10 or more and less than 20 is denoted as A),A (a compound having 10 or more and less than 20 is denoted as A)

# Further lines, with some results ahead:
"Kd [1, 5] [nM]",IC50 [4] [nM],"Kd ([1]; 1:1 binding model, read-out: KD value with respect to GDP-bound KRAS wild-type protein) [nM]","Kd [1, 6] [nM]","IC50 [4, 7] [nM]",SMILES,NRAS/KRAS (ratio of KD value for NRAS to KD value for KRAS) ([2]; KD ratio class),HRAS/KRAS (ratio of KD value for HRAS to KD value for KRAS) ([3]; KD ratio class),NRAS/KRAS (ratio of KD value for NRAS to KD value for KRAS) [2],ratio of the KD value with respect to GDP-bound NRAS wild-type protein to the KD value with respect to KRAS [2],HRAS/KRAS (ratio of KD value for HRAS to KD value for KRAS) [3],ratio of the KD value with respect to GDP-bound HRAS wild-type protein to the KD value with respect to KRAS [3]
0.14,4.4,,,,CCO[C@@H]1C[C@H]2C(=O)NC3(CCC3)C(=O)N(C)[C@@H](C3CCCC3)C(=O)N(C)[C@H](C(=O)N3CCCC3)CC(=O)N(C)[C@@H](CC3CCC3)C(=O)N[C@@H]([C@@H](C)CC)C(=O)N(C)CC(=O)N(C)[C@H]3C/C=C\CCN(C3=O)[C@@H](Cc3ccc(C(F)(F)F)cc3)C(=O)N(C)CC(=O)N[C@@H](CCc3cc(F)c(C(F)(F)F)c(F)c3)C(=O)N2C1 [PP1423],AA (a compound having 20 or more is denoted as AA),A (a compound having 10 or more and less than 20 is denoted as A),,,,
0.081,9,,,,"CCCCCC[C@H]1C(=O)N[C@@H]([C@@H](C)CC)C(=O)N(C)CC(=O)N(C)[C@H]2C/C=C\CCN(C2=O)[C@@H](Cc2ccc(C(F)(F)F)cc2)C(=O)N(C)CC(=O)N[C@@H](CCc2ccc(C(F)(F)F)c(OC)c2)C(=O)N2C[C@H](OCC)C[C@H]2C(=O)NC2(CCC2)C(=O)N(C)[C@@H](C2CCCC2)C(=O)N(C)[C@H](C(=O)N(C)C)CC(=O)N1C [PP1246, (2S,8S,12R,14S,20S,23S,27S,30S,36S,38Z)-20-cyclopentyl-12-ethoxy-27-hexyl-8-[2-[3-methoxy-4-(trifluoromethyl)phenyl]ethyl]-N,N,4,19,22,26,32,35-octamethyl-30-[(1S)-1-methylpropyl]-3,6,9,15,18,21,25,28,31,34,42-undecaoxo-2-[[4-(trifluoromethyl)phenyl]methyl]spiro[1,4,7,10,16,19,22,26,29,32,35-undecazatricyclo[34.5.1.0^10,14]dotetracont-38-ene-17,1′-cyclobutane]-23-carboxamide]",A (a compound having 10 or more and less than 20 is denoted as A),A (a compound having 10 or more and less than 20 is denoted as A),,,,
0.18,22.2,,,,CCO[C@@H]1C[C@H]2C(=O)NC3(CCC3)C(=O)N(C)[C@@H](C3CCCC3)C(=O)N(C)[C@H](C(=O)N(C)C)CC(=O)N(C)[C@@H](CC3CCC3)C(=O)N[C@@H]([C@@H](C)CC)C(=O)N(C)CC(=O)N(C)[C@H]3C/C=C\CCN(C3=O)[C@@H](CC3CCCCC3)C(=O)N(C)CC(=O)N[C@@H](CCc3cc(F)c(C(F)(F)F)c(F)c3)C(=O)N2C1 [PP1469],A (a compound having 10 or more and less than 20 is denoted as A),A (a compound having 10 or more and less than 20 is denoted as A),,,,
,13.3,,0.17,,CCOC[C@H]1C(=O)N[C@@H]([C@@H](C)CC)C(=O)N(C)CC(=O)N(C)[C@H]2C/C=C\CCN(C2=O)[C@@H](Cc2ccc(C)cc2)C(=O)N(C)CC(=O)N[C@@H](CCc2cc(F)c(C(F)(F)F)c(F)c2)C(=O)N2C[C@@H](C)C[C@H]2C(=O)NC2(CC(C)(C)C2)C(=O)N(C)[C@@H](C2CCCC2)C(=O)N(C)[C@H](C(=O)N(C)CC)CC(=O)N1C [PP2457],,,A (a compound having 10 or more and less than 20 is denoted as A),,A (a compound having 10 or more and less than 20 is denoted as A),
,5.8,,0.2,,CCO[C@@H]1C[C@H]2C(=O)NC3(CC(C)(C)C3)C(=O)N(C)[C@@H](C3CCCC3)C(=O)N(C)[C@H](C(=O)N(CC)CC)CC(=O)N(C)[C@@H](COC)C(=O)N[C@@H]([C@@H](C)CC)C(=O)N(C)CC(=O)N(C)[C@H]3C/C=C\CCN(C3=O)[C@@H](Cc3ccc(C)cc3)C(=O)N(C)CC(=O)N[C@@H](CCc3ccc(C(F)(F)F)c(Cl)c3)C(=O)N2C1 [PP2400],,,A (a compound having 10 or more and less than 20 is denoted as A),,A (a compound having 10 or more and less than 20 is denoted as A),
,21.3,,0.29,,CCOC[C@H]1C(=O)N[C@@H]([C@@H](C)CC)C(=O)N(C)CC(=O)N(C)[C@H]2C/C=C\CCN(C2=O)[C@@H](Cc2ccc(C)cc2)C(=O)N(C)CC(=O)N[C@@H](CCc2ccc(C(F)(F)F)c(OC)c2)C(=O)N2C[C@H](OCC)C[C@H]2C(=O)NC2(CC(C)(C)C2)C(=O)N(C)[C@@H](C2CCCC2)C(=O)N(C)[C@H](C(=O)N(CC)CC)CC(=O)N1C [PP2406],,,A (a compound having 10 or more and less than 20 is denoted as A),,A (a compound having 10 or more and less than 20 is denoted as A),
0.49,62,,,,CCCCCC[C@H]1C(=O)N[C@@H]([C@@H](C)CC)C(=O)N(C)CC(=O)N(C)[C@H]2C/C=C\CCN(C2=O)[C@@H](Cc2ccc(C(F)(F)F)cc2)C(=O)N(C)CC(=O)N[C@@H](CCc2ccc3sccc3c2)C(=O)N2C[C@H](OCC)C[C@H]2C(=O)NC2(CCC2)C(=O)N(C)[C@@H](C2CCCC2)C(=O)N(C)[C@H](C(=O)N(C)C)CC(=O)N1C [PP1259],A (a compound having 10 or more and less than 20 is denoted as A),A (a compound having 10 or more and less than 20 is denoted as A),,,,
